Results: patent US12673083B2, “TREM-1 inhibitors for the treatment of vaso-occlusions and tissue injuries in patients suffering from sickle cell disease” (INSERM (INSTITUT NATIONAL DE LA SANTÉ ET DE LA RECHERCHE …, priority 2019, dated 2026)
Entries after “also recorded” stand apart in the source; their conditions may differ.

Columns and labels:
Ter 119+ erythrocytes = test: Hypoxia-reoxygenation experimental vaso-occlusive crisis: vascular congestion with erythrocytes on histological sections; type: in vivo, sickle cell mice (SS)
Method: (§1) Experiments were performed on 4-6 week-old sex matched healthy control (Hba^tm1(HBA)Tow Hbb^tm3(HBG1,HBB) Tow) (HbAA (hα/hα::β^A/β^A)) and SCD (Hba^tm1(HBA)Tow Hbb^tm2(HBG1,HBB*)Tow) (HbSS (hα/hα::βS/βS)) mice as well as SAD transgenic sickle mice with or without Trem-1 gene deletion (TREM-1 KO). The animal protocol was approved by the Paris Descartes University Animal Care and Use Committee and the French Ministry of Agriculture. Animals were anesthetized with isoflurane, and whole blood was collected from each mouse via retro-orbital venipuncture by heparinized microcapillaries. In anesthetized animals, organs were immediately removed and divided into two and either immediately frozen in liquid nitrogen or fixed in 10% formalin and embedded in paraffin for histology.
(§2) In order to test the pharmacological inhibition of TREM-1 on erythrocyte vascular congestion and neutrophils infiltrates, homozygous HbS (SS) mice were subjected to 14 hours hypoxia (8% oxygen) and then 1 hours reoxygenation (21% oxygen) to trigger acute vaso-occlusive crisis as previously described (Sabaa N et al. J Clin Invest. 2008 May; 118(5):1924-33). The TREM-1 inhibitory peptide for each of the hypoxia-reoxygenation experiments was administered by intraperitoneal injection just prior to the onset of hypoxia, as well as at the end of hypoxia, at the beginning of the reoxygenation phase. These conditions reproduce a situation of severe hypoxia for SCD, provoking crises and damage related to ischemia-reperfusion. After this experiment, the tissues were analyzed in the same way as for the SS mice in the base state.

neutrophils = test: Intravital microscopy of neutrophils in post-capillary venous microcirculation of the cremaster after TNFα injection; type: in vivo, HbSS knock-in sickle cell mice; settings: HbSS mice
Method: as §1
To characterize in vivo the effects of the TREM-1 pathway on neutrophils recruitment, we used a protocol as previously described (Koehl B et al. Haematologica. 2017 July; 102(7):1161-1172). Male mice were anaesthetized by spontaneous inhalation of isoflurane and maintained at 37° C. with a heating pad. The left jugular vein was cannulated to administer drugs and antibodies. […] 2 h after TNFα injection, the cremaster muscle was incised and neutrophils were monitored by injection of labeled Phycoerythrin-conjugated anti-Ly6G antibody (0.05 μg/g body weight, clone RB6-8C5, BD Biosciences Pharmingen). Venules were visualized with an intravital microscope (Zeiss Examiner D1) equipped with a water-immersion objective (Zeiss Plan-Apochromat 20×/1.0 NA) and fluorescence excitation was made through a Lambda DG-4 high-speed wavelength switcher (Sutter Instrument). […] Images were analyzed using SlideBook 6.0 software (Intelligent Imaging Innovations). The neutrophil rolling flux fraction, adhesion density, adhesion efficiency and transmigration were measured using playback assessment of 3-min digital time-lapse videos and 3D z-stack recordings of single unbranched venules (3 venules per mouse, 20-40 μm) from 2.5 hours to 5 hours after the TNFα challenge at 30-min intervals. […]

neutrophils (PMNs) = test: Hypoxia-reoxygenation experimental vaso-occlusive crisis: abundance of neutrophils on histological sections; type: in vivo, sickle cell mice (SS)
Method: as §1, §2

[1] = histological sections of lung, SS LR12 vs SS PBS

Substance: LR12: 12 amino-acid TREM-1 inhibitory peptide LQEEDAGEYGCM, N-terminal 12 amino-acids of LR17 (TLT-1 derived) (Synthetic LR12)
- vascular congestion with Ter 119+ erythrocytes, liver (Ter 119+ erythrocytes; histological sections of liver, SS LR12 vs SS PBS, intraperitoneal, hypoxia-reoxygenation): significant reduction
- vascular congestion with Ter 119+ erythrocytes, lung (Ter 119+ erythrocytes; [1]): not in lung sections
- vascular congestion with Ter 119+ erythrocytes, renal medulla (Ter 119+ erythrocytes; histological sections of renal medulla, SS LR12 vs SS PBS): significant reduction
- vascular congestion with Ter 119+ erythrocytes, spleen (Ter 119+ erythrocytes; histological sections of spleen, SS LR12 vs SS PBS): significant reduction
- vascular congestion of tissues (Ter 119+ erythrocytes; tissues of sickle cell mice (summary statement, FIGS. 3A-3D)): significant reduction
- neutrophil rolling (neutrophils; between 3 h and 4 h30 post-injection of TNFα, LR12 6 mg/kg 10 min before and 3 mg/kg 3 h15 after TNFα, 2way ANOVA P value=0.0041): significant reduction; also recorded: reduces
- neutrophil transmigration (neutrophils; from 3 h to 5 h post-TNFα, 2way ANOVA P value <0.0001): significant reduction; also recorded: reduces
- neutrophil adhesion (neutrophils; throughout the experiment after TNFα, 2way ANOVA P value <0.0001): significant reduction; also recorded: reduces
- abundance of neutrophils, liver (% green fluorescent surface) (neutrophils (PMNs); histological sections of liver, SS LR12 vs SS PBS): significant reduction
- abundance of neutrophils, lung (% green fluorescent surface) (neutrophils (PMNs); [1]): significant reduction
- abundance of neutrophils in tissues (neutrophils (PMNs); tissues of sickle cell mice during experimental vaso-occlusive crisis (summary statement, FIGS. 4A and 4B)): significant reduction
